Experimental data from the supplement of paper PMC10307832.

How the values were obtained:
Assay in all cases: relative viability (nuclei count vs DMSO), 5 days (fraction); higher = more cells survive
[1] = compound: CC1=C(CC(=O)O)c2cc(F)ccc2/C1=C\c1ccc([S+](C)[O-])cc1 [Sulindac] + CS(=O)(=O)CCNCc1ccc(-c2ccc3ncnc(Nc4ccc(OCc5cccc(F)c5)c(Cl)c4)c3c2)o1 [Lapatinib] (partner 2 µM)
Procedure, shortened: (§1)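 Each reported value is a median over duplicate plates. It expresses relative viability: treated-well nuclei count divided by vehicle-well nuclei count. Lung cancer cell lines in 1536-well plates were dosed by pin tool a day after seeding, alone with one drug or with a fixed anchor-drug dose plus five library-drug doses (not always all listed) in √10 steps, and nuclei were counted after 5 days.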

[2] = compound: O=c1[nH]cc(F)c(=O)[nH]1 [5-Fluorouracil] + CC(=O)Nc1cccc(-n2c(=O)n(C3CC3)c(=O)c3c(Nc4ccc(I)cc4F)n(C)c(=O)c(C)c32)c1 [Trametinib] (partner 0.02 µM)
Procedure, shortened: as §1

[3] = compound: O=c1[nH]cc(F)c(=O)[nH]1 [5-Fluorouracil] + CC(=O)c1c(C)c2cnc(Nc3ccc(N4CCNCC4)cn3)nc2n(C2CCCC2)c1=O [Palbociclib] (partner 0.5 µM)
Procedure, shortened: as §1

[4] = compound: O=c1[nH]cc(F)c(=O)[nH]1 [5-Fluorouracil] + C[C@@H](Oc1cc(-c2cnn(C3CCNCC3)c2)cnc1N)c1c(Cl)ccc(F)c1Cl [Crizotinib] (partner 1 µM)
Procedure, shortened: as §1

Row | Cell Line | relative viability ([1]; first compound 0.08 µM) | relative viability ([1]; first compound 0.253 µM) | relative viability ([1]; first compound 2.53 µM) | relative viability ([1]; first compound 8 µM) | relative viability ([2]; first compound 0.02 µM) | relative viability ([2]; first compound 0.2 µM) | relative viability ([2]; first compound 0.6325 µM) | relative viability ([2]; first compound 2 µM) | relative viability ([3]; first compound 0.02 µM) | relative viability ([3]; first compound 0.2 µM) | relative viability ([3]; first compound 0.6325 µM) | relative viability ([3]; first compound 2 µM) | relative viability ([4]; first compound 0.02 µM) | relative viability ([4]; first compound 0.2 µM) | relative viability ([4]; first compound 0.6325 µM) | relative viability ([4]; first compound 2 µM) | relative viability ([1]; first compound 0.8 µM)
1 | NCI-H460 | 1.97 | 1.38 | 1.12 | 1.19 | 0.219 | 0.144 | 0.0819 | 0.0387 | 0.236 | 0.167 | 0.046 | 0.045 | 1 | 0.44 | 0.186 | 0.0322 | –
2 | SK-LU-1 | 0.981 | 0.918 | 0.839 | 0.9 | 0.458 | 0.598 | 0.435 | 0.464 | 0.398 | 0.388 | 0.382 | 0.373 | 0.98 | 0.977 | 0.918 | 0.74 | –
3 | LOU-NH91 | 0.899 | 0.72 | 0.669 | 0.831 | 0.814 | 0.871 | 0.818 | 0.596 | 0.545 | 0.536 | 0.541 | 0.399 | 0.798 | 0.697 | 0.547 | 0.341 | 0.682
4 | RERF-LC-KJ | 0.888 | 0.934 | 0.862 | 0.943 | 0.949 | 0.811 | 0.838 | 0.7 | 1.06 | 0.991 | 0.891 | 0.677 | 0.867 | 0.841 | 0.849 | 0.665 | 0.685
5 | NCI-H2126 | 0.793 | 0.722 | 0.773 | 0.861 | 0.579 | 0.305 | 0.27 | 0.257 | 0.348 | 0.29 | 0.299 | 0.274 | 0.962 | 0.528 | 0.341 | 0.307 | 0.758
6 | LU99A | 1.33 | 1.11 | 0.869 | 1.01 | 0.655 | 0.559 | 0.374 | 0.268 | 0.441 | 0.419 | 0.361 | 0.257 | 0.579 | 0.521 | 0.521 | 0.384 | 0.854
7 | BEN | 0.785 | 0.714 | 0.754 | 0.995 | 0.934 | 0.93 | 0.946 | 0.938 | 0.443 | 0.433 | 0.472 | 0.449 | 1.02 | 0.719 | 0.615 | 0.718 | 0.695
8 | NCI-H1666 | – | 0.738 | 0.696 | 0.753 | 0.891 | 0.714 | 0.601 | 0.56 | 0.677 | 0.642 | 0.647 | 0.609 | 0.94 | 0.406 | 0.366 | 0.344 | 0.491
9 | NCI-H1993 | 0.837 | 0.801 | 0.77 | 0.805 | 0.379 | 0.524 | 0.486 | 0.487 | 0.681 | 1.19 | 0.469 | 0.494 | 0.773 | 0.839 | 0.645 | 0.622 | 0.757
10 | NCI-H520 | 0.956 | 0.944 | 0.755 | 1.14 | 0.624 | 0.666 | 0.439 | 0.311 | 0.177 | 0.271 | 0.218 | 0.167 | 0.819 | 0.832 | 0.6 | 0.372 | 0.793
